Laboratory results taken from US11198680B2 (BioAxone BioSciences, Inc., priority 2016, dated 2021).
Read-outs that look alike come from different tables or passages of the source.

Experiments:
[1] = target: NET (norepinephrine transporter) (Homo sapiens (Human), UniProt P23975); assay: SAFETYscan neurotransmitter transporter activity; format: cell-based
Method: (§1) The SAFETYscan™ (DiscoverX) is used for rapid testing of any compound against a panel that includes well-known membrane proteins of importance for drug development such as selected voltage-gated ion channels, G-protein coupled receptors, neurotransmitter transporters and also a selected group of purified cellular enzymes.
(§2) Cell lines engineered to express individual transmembrane receptor proteins such as the muscarinic acetylcholine receptor or the dopamine D1 receptor were grown in culture in their standard growth medium until reaching confluence. […] The experiment also contains controls for comparison including known agonists and antagonists of the targeted membrane proteins.

[2] = target: SERT (serotonin transporter) (Homo sapiens (Human), UniProt P31645); assay: SAFETYscan neurotransmitter transporter activity; format: cell-based
Method: as §1, §2

[3] = test system: intracellular ROCK activity (ppMLC2 T18/S19) in HUVECs; assay: HUVEC ppMLC2 dose-response; format: cell-based, human; conditions: for EC50: 1 h exposure, read-out: EC50 for reduction of MLC2 diphosphorylation; for maximum reduction of ppMLC2 levels: highest dose tested 1 mM, 1 h
Method: Cells were exposed to each dose for 1 h. All experiments were conducted in triplicate and analyzed by 2 independent assessors blinded to the compound and compound concentration.
Cells were subjected to biochemical protein analysis of di-phosphorylated MLC2 (Threonine 18/Serine 19 phosphorylation sites) using SDS-PAGE and immunoblotting. Cells were plated in a 24-well tissue culture plates, coated with 70 μg/ml rat collagen-1 (Corning) and grown for 2-3 days at 37° C./5% CO2 until confluency. […] Drugs were diluted in Medium 200 (Thermo Fisher Scientific) supplemented with 0.1% human serum albumin (HSA, Sigma-Aldrich). After 1 h, cells were lysed with RIPA buffer (Boston Bioproducts; Ashland, Mass.) supplemented with complete protease/phosphatase inhibitors (HALT, Thermo Fisher Scientific), reduced, and denatured with Laemmli sample buffer (BioRad)/beta-mercaptoethanol. Denatured samples were electrophoresed in reducing 10% Bis-Tris-PA gels (Novex) and then transferred onto 0.25 μm PVDF membranes (EMD Millipore). Membranes were incubated with 4% bovine serum albumin solution to block unspecific antibody binding sites and then immunolabeled for ppMLC2 T18/S19 (1:500, Cell Signaling) and glyceraldehyde 3-phosphate dehydrogenase loading control (GAPDH, 1:10,000; Abcam). Protein levels were detected using a chemiluminescence substrate (Super Signal West, ThermoFisher) and were captured with FluoroChem SP imaging system. Chemiluminescence of ppMLC2 and GAPDH was measured by densitometric analysis. ppMLC2 signal was normalized against GAPDH signal plotted as percentage of no treatment control (0 μM). EC50 values were determined by dose-response analysis using GraphPad software.

[4] = target: MARK1 (Homo sapiens (Human), UniProt Q9P0L2); assay: KINOMEscan kinome screen; conditions: percent of negative control binding
MARK1, sequence (Q9P0L2 whole entry): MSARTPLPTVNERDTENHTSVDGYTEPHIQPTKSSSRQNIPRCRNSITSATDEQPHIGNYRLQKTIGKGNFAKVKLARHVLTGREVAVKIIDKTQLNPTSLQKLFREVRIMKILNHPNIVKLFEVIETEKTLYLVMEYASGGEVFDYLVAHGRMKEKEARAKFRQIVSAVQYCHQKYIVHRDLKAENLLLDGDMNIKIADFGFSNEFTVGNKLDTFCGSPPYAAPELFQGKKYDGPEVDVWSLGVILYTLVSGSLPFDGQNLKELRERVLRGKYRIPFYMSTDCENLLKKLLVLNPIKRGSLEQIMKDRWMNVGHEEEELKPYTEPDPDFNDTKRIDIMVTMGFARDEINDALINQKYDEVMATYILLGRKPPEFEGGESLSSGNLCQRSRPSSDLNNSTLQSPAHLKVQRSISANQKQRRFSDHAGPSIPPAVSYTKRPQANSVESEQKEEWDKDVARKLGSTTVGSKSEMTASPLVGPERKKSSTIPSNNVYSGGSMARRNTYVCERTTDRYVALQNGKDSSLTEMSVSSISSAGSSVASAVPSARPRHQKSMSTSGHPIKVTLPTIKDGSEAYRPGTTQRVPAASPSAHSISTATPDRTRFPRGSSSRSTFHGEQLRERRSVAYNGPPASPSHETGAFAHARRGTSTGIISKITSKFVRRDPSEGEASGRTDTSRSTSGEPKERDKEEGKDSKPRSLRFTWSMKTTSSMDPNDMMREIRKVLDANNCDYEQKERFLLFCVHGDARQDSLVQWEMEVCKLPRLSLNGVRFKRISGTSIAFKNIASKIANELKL
Excerpt: (§3) The KINOMEscan™ screening platform (DiscoverX, Fremont, Calif.) employs a novel active site-directed competition binding assay to quantitatively measure interactions between test compounds and more than 450 human kinases and disease relevant mutant variants. […] Compounds that bind the kinase active site and directly (sterically) or indirectly (allosterically) prevent kinase binding to the immobilized ligand, will reduce the amount of kinase captured on the solid support. […] Screening “hits” are identified by measuring the amount of kinase captured in test versus control samples by using a quantitative, precise and ultra-sensitive qPCR method that detects the associated DNA label.
(§4) Kinase-tagged T7 phage strains were grown in parallel in 24-well blocks in an E. coli host derived from the BL21 strain. E. coli were grown to log-phase and infected with T7 phage from a frozen stock (multiplicity of infection=0.4) and incubated with shaking at 32° C. until lysis (90-150 minutes). The lysates were centrifuged (6,000×g) and filtered (0.2 μm) to remove cell debris. The remaining kinases were produced in HEK-293 cells and subsequently tagged with DNA for qPCR detection (Wein, et al. (2016) Nat. Comm. 7). […] Test compounds were prepared as 40× stocks in 100% DMSO and directly diluted into the assay. All reactions were performed in polypropylene 384-well plates in a final volume of 0.02 ml.

[5] = target: MEK2 (Homo sapiens (Human), UniProt P36507); assay: KINOMEscan kinome screen; conditions: percent of negative control binding
MEK2, sequence (P36507 whole entry): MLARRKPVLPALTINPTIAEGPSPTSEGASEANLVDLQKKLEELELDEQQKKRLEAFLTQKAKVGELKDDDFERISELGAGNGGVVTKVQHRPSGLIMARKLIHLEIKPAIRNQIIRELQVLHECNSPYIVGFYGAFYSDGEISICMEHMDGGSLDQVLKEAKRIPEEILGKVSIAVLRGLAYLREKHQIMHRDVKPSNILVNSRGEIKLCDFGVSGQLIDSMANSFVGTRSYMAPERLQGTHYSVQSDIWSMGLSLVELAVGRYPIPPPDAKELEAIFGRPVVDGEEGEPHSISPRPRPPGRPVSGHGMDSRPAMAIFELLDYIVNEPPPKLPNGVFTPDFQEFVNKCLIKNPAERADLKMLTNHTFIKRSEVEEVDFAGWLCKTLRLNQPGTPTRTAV
Excerpt: as §3, §4

[6] = target: SLK (Homo sapiens (Human), UniProt Q9H2G2); assay: KINOMEscan kinome screen; conditions: percent of negative control binding
SLK, sequence (Q9H2G2 whole entry): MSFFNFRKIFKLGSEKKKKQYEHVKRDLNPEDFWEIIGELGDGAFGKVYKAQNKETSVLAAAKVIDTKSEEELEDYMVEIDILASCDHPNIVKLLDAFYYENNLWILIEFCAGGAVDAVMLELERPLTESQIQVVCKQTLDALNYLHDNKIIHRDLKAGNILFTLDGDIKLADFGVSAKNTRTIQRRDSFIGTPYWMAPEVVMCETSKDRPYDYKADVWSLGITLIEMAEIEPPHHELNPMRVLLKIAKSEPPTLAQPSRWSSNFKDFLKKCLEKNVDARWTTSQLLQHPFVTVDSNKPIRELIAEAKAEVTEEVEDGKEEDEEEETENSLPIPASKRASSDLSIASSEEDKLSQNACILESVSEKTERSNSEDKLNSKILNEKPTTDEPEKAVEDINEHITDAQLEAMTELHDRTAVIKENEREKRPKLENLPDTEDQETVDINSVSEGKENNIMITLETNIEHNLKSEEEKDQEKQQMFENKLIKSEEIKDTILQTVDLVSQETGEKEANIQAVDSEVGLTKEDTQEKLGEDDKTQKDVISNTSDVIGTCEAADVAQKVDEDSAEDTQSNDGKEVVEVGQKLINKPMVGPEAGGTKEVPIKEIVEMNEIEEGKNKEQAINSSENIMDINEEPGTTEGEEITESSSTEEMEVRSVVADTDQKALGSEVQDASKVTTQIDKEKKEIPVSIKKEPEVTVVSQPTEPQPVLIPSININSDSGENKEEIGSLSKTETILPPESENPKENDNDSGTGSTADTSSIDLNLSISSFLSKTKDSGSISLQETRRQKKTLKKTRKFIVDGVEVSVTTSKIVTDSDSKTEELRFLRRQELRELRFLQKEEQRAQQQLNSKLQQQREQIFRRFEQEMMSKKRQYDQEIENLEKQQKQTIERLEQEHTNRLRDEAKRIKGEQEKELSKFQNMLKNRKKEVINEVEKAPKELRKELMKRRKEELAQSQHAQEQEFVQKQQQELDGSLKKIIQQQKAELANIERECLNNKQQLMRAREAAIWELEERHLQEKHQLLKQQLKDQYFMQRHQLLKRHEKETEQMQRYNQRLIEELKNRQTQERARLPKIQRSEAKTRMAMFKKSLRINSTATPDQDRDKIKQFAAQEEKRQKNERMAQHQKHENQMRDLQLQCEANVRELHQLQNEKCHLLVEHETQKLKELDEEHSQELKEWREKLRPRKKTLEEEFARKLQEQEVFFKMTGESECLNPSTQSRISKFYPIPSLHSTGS
Excerpt: as §3, §4

[7] = target: ALK (Homo sapiens (Human), UniProt Q9UM73); assay: KINOMEscan kinome screen; conditions: percent of negative control binding
Excerpt: as §3, §4

[8] = target: FGFR4 (Homo sapiens (Human), UniProt P22455); assay: KINOMEscan kinome screen; conditions: percent of negative control binding
FGFR4, sequence (P22455 22-802): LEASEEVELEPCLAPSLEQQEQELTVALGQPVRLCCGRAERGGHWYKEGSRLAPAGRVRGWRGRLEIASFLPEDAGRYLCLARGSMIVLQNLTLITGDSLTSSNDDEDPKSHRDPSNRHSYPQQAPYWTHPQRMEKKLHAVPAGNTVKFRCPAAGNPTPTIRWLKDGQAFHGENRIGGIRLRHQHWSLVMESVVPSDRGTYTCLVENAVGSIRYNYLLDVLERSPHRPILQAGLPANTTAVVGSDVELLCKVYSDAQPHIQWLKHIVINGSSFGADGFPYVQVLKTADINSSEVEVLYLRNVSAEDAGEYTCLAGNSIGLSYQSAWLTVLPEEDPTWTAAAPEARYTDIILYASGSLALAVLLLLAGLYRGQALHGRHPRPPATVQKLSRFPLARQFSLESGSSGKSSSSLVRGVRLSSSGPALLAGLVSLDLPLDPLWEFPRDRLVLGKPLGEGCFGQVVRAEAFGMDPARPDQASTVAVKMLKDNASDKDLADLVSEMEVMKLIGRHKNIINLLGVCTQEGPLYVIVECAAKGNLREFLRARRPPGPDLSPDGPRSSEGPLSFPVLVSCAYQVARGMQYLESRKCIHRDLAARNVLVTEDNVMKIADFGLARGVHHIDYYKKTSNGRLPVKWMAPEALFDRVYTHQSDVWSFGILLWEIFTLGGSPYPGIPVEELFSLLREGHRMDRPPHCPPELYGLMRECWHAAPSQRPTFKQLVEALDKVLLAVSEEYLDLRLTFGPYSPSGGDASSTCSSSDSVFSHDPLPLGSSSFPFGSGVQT
Excerpt: as §3, §4

[9] = target: PRKCQ (Homo sapiens (Human), UniProt Q04759); assay: KINOMEscan kinome screen; conditions: percent of negative control binding
Excerpt: as §3, §4

[10] = target: MEK1 (Homo sapiens (Human), UniProt Q02750); assay: KINOMEscan kinome screen; conditions: percent of negative control binding
MEK1, sequence (Q02750 whole entry): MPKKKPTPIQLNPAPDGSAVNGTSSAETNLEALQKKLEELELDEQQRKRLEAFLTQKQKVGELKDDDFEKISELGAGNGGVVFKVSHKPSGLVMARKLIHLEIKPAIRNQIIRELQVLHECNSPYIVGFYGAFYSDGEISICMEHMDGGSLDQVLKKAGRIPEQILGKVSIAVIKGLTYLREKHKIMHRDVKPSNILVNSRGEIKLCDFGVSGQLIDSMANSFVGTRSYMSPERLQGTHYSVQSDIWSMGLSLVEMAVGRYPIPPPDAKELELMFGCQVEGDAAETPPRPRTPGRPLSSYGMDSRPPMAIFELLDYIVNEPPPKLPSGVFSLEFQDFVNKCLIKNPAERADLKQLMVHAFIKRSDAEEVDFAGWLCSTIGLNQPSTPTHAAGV
Excerpt: as §3, §4

[11] = target: IRAK3 (Homo sapiens (Human), UniProt Q9Y616); assay: KINOMEscan kinome screen; conditions: percent of negative control binding
IRAK3, sequence (Q9Y616 whole entry): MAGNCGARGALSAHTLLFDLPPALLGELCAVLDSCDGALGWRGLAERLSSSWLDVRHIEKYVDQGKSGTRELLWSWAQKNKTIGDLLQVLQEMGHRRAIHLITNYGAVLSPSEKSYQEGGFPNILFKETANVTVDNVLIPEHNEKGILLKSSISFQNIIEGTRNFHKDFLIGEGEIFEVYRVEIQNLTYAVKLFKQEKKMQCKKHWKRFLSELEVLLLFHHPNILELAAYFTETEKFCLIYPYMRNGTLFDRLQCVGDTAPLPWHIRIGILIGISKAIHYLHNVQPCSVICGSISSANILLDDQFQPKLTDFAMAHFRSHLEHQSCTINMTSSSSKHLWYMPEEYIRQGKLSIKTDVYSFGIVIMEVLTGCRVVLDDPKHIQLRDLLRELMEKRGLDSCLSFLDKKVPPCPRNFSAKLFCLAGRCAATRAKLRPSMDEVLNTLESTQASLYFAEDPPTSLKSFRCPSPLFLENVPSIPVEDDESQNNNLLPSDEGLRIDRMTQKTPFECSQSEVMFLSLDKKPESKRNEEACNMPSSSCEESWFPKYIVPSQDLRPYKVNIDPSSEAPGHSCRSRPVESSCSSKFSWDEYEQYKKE
Excerpt: as §3, §4

[12] = target: MARK2 (Homo sapiens (Human), UniProt Q7KZI7); assay: KINOMEscan kinome screen; conditions: percent of negative control binding
MARK2, sequence (Q7KZI7 whole entry): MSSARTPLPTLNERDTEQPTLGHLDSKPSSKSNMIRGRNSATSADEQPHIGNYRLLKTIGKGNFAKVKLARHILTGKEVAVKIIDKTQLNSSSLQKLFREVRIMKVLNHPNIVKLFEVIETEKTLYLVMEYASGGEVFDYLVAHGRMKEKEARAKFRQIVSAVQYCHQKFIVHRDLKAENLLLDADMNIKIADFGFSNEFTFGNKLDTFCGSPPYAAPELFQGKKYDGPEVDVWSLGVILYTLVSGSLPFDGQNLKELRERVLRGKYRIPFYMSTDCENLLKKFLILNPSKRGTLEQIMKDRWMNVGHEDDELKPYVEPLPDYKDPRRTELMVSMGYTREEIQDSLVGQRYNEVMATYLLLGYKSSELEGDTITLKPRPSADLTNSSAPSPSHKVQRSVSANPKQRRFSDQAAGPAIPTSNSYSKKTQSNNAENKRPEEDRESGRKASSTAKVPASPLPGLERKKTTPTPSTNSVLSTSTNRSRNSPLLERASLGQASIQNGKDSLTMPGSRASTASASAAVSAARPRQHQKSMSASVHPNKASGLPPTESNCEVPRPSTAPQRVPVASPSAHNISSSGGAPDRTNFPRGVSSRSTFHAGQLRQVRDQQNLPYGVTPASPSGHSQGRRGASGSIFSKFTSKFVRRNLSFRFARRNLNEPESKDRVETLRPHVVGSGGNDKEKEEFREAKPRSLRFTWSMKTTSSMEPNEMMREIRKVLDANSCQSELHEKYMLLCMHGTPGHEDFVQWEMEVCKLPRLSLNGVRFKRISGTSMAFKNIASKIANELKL
Excerpt: as §3, §4

[13] = target: MARK4 (Homo sapiens (Human), UniProt Q96L34); assay: KINOMEscan kinome screen; conditions: percent of negative control binding
Excerpt: as §3, §4

[14] = target: MARK3 (Homo sapiens (Human), UniProt P27448); assay: KINOMEscan kinome screen; conditions: percent of negative control binding
Excerpt: as §3, §4

[15] = Brain concentration after IV BA-1049 (R), LC-MS/MS; format: in vivo; conditions: mouse
Method: Mice are dosed either by intravenous (IV) administration or oral (PO) administration via oral gavage.
After IV dosing, brains are collected from 4 mice at each time point: 0.083 hr, 0.5 hr, 2 hr, 6 hr, 12 hr, and 24 hr after dose. Each mouse is euthanized by CO2. The entire brains are removed, weighed, rinsed with PBS, placed in tubes, and snap frozen in liquid nitrogen.
Brain tissue was homogenized in 1 mL/g PBS. Brain homogenates are precipitated by pipetting 200 μL of homogenate into a tube using aseptically cut off 1000 μL pipette tips to prevent clogging.

[16] = test system: hBMVEC monolayer; assay: LPA-treated hBMVECs, endothelial monolayer integrity; format: cell-based, human; conditions: 1 μM or 10 μM, 20 μM LPA, Example 16, present tense
Method: Cells are exposed to each dose for 1 hr, and are then stimulated with 20 μM LPA for either 5 min or 1 hr as described below. All experiments are conducted in triplicate and analyzed by 2 independent assessors blinded to both cell line and treatment.
To examine hBMVECs monolayer integrity, cells are plated on PDL-coated coverslips (Corning) coated with Fibronectin, Collagen-1 and gelatin. 50,000 cells are seeded on each coverslip situated in a 24-well plate. Cells are grown for 3 days in ENDO-growth media (Neuromics) at 37° C./5% CO2. […] The medium is exchanged for ENDO basal media supplemented with 1% HSA, 20 μM of LPA (Santa Cruz Biotech; Santa Cruz, Calif.) and the appropriate amount of compound being tested. After 60 min, cells were fixed with 4% paraformaldehyde and stained for actin-phalloidin (ThermoFisher) and V-Cadherin (Cell Signaling), and then were mounted on microscope slides. Coverslips were imaged by fluorescence microscopy and the cell-free holes in the monolayer are measured using Image J. 3.

SMILES | maximum reduction of ppMLC2 levels [3] | % Negative Binding, MARK1 [4] | % Negative Binding, MEK2 [5] | % Negative Binding, SLK [6] | % Negative Binding, ALK [7] | % Negative Binding, FGFR4 [8] | % Negative Binding, PRKCQ [9] | % Negative Binding, MEK1 [10] | % Negative Binding, IRAK3 [11] | % Negative Binding, MARK2 [12] | % Negative Binding, MARK4 [13] | % Negative Binding, MARK3 [14] | also measured
C[C@@H](N)C1CCN(S(=O)(=O)c2cccc3cnccc23)CC1 [BA-1049 (R)] | 89% | 67% | 99% | 70% | 94% | 100% | 74% | 99% | 92% | 100% | 94% | 100% | inhibition at 10 µM [1]: 12%; inhibition at 10 µM ([2]; read-out: % Inhibition of Neurotransmitter Transporter Activity, SERT): 9%; EC50 ([3]; Homo sapiens, HUVEC): 3.83 µM; time detectable in brain after administration ([15]; 5 mg/kg BA-1049 (R) IV): at least 24 hr
C[C@@H](N)C1CCN(S(=O)(=O)c2cccc3c(=O)[nH]ccc23)CC1 [1-hydroxy-BA-1049 (R)] | 94% | 69% | 97% | 100% | 81% | 100% | 66% | 100% | 96% | 100% | 92% | 81% | % Inhibition of Neurotransmitter Transporter Activity, NET ([1]; 10 μM): 11%; % Inhibition of Neurotransmitter Transporter Activity, SERT ([2]; 10 μM): 14%; EC50 [3]: 0.449 µM; time detectable in brain after administration ([15]; in vivo, iv, 5 mg/kg): < 12 h; monolayer integrity / Rho/ROCK activation after LPA [16]: prevent Rho/ROCK activation
